Data set [1] deals with Interleukin-2 (IL-2) production in human T lymphocytes. The experiment in a line: Interleukin-2 release in Con A-stimulated human T lymphocytes (ELISA). It is filed as cell-based. To be noted: 2 h pre-treatment at non-toxic concentration, Con A 50 μg/mL 48 h. The method, then:
Then, cells were stimulated with Concanavalin A (Con A) at 50 μg/mL for 48 h to induce IL-2 release. The amount of IL-2 released to the culture medium was evaluated using Human IL-2 ELISA kit. Experiments were carried out four times.

Data set [2] concerns the target T1, active human CypA protein (Homo sapiens, UniProt P62937).
T1 construct: Active human CypA full-length protein was from Abcam; purchased Abcam
The experiment in a line: Binding to immobilized CypA by surface plasmon resonance (SPR). The following applies: SPR, immobilized CypA. The method, then: Sensor surface activation and ligand immobilization were performed by using HBS-EP as running buffer at a flow rate of 5 μL/min and 25° C. CM5 sensor chips were used as surface where Cyp A or D was immobilized as ligand. The CM5 chip is a glass slide coated with a thin layer of gold with a matrix of carboxymethylated dextran covalently attached. The CM5 chip was activated using an amine coupling kit. […] After activation, the ligand, 100 μg/mL of active human CypA protein dissolved in sodium acetate 10 mM at pH 4.5 was added to be immobilized over a CM5 sensor chip. Finally ethanolamine-HCl was injected to deactivate the remaining active esters and to avoid non-specific binding. […] Once analytes were tested and interaction was observed, individual binding curves were analyzed by determining the kinetic constants of analytes-CypA binding, namely, the observed rate constant (Kobs), the association rate constant (Kass), the dissociation rate constant (Kdiss), and the kinetic equilibrium dissociation constant (KD). At equilibrium, by definition, […]. The pseudo-first order association rate constants Kobs (s^-1) were determined for each compound concentration by using the 1:1 Langmuir association model of BiaEvaluation software (BiaCore, Uppsala, Sweden). Then a representation of Kobs against the corresponding concentration of each compound was done. […] From the equation of these representations, Kass, M^-1 s^-1, gradient of the plot, and […]^-1, intercept of the plot was obtained. Within these two values, the kinetic equilibrium dissociation constant KD for each analyte-CypA binding was obtained. The duration of the sample injection was 2 min at 10 μL/min flow rate. Next, dissociation of bound molecules in HBS-EP buffer flow was studied. The bound drugs were removed from the chip surface before the next injection by adding 1 M Glycine-HCl at pH 2.5 for 1 min. The association phase was used to quantify the compound-CypA or D interactions. All experiments were performed four times.
In general terms: In SPR one partner is held on a chip, and binding of the other changes the refractive index at the surface.

The test system of data set [3] is SH-SY5Y cells. The experiment in a line: Cellular toxicity in SH-SY5Y cells (MTT, 24 h). The following applies: 24 h; for cytotoxicity toward SH-SY5Y cells: 10-0.01 μM, in words. It is filed as cell-based. An excerpt:
(§1) The MTT (3-[4,5-dimethylthiazol-2-yl]-2,5-diphenyltetrazoliumbromide) assay was used to determine the cytotoxicity of gracilin derivatives in T lymphocytes (Burton, J. D. Methods Mol. Med., 2005, 110, 69-78) and SH-SY5Y cells and the protective effect of these compounds against H2O2 insult in neuroblastoma cells as previously described (Leiros, M., Alonso, E., Sanchez, J. A., Rateb, M. E., Ebel, R., Houssen, W. E., Jaspars, M., Alfonso, A. and Botana, L. M. ACS Chem. Neurosci., 2014, S, 71-80). Human T lymphocytes were cultured in 24 well plates at the concentration of 2.5×10^6 cells/mL and exposed to different compound concentrations (0.01, 0.1, 1 and 10 μM) added to the culture medium. Human T cells were maintained in the presence of the pure compound at 37° C. in humidified 5% CO2/95% air atmosphere for 48 h.
(§2) SH-SY5Y cells were seeded in 96-well plates at a density of 2.5×10^5 cells/mL and allowed to adhere for 24 h. At first, cells were treated only with compounds at concentrations ranging from 10-0.01 μM for 24 h to determine their possible cytotoxic effects. Experiments were carried out three times. For neuroprotective experiments, cells were treated with compounds at non-toxic concentrations (1 μM→1 nM) and 150 μM H2O2 for 6 h. Briefly, cells were washed three times with saline solution and 200 μL of MTT (500 μg/mL) dissolved in saline buffer were added to each well. Following 1 h of incubation at 37° C., the cells were disaggregated with sodium dodecyl sulphate at 5%.
Absorbance of formazan crystals was measured at 595 nm with a spectrophotometer plate reader. Saponin was used as death control and its absorbance was subtracted from the other data. All experiments were performed four times.

Data set [4] is described as follows: Viability of human T lymphocytes (MTT assay, 48 h). It is filed as cell-based. The following applies: human; 1 μM, 48 hours; read-out: decrease in cell viability.
Text: as §1
(§3) Saponin was used as cellular death control and its absorbance was subtracted from the other data. After the incubation period with compounds, assay was performed. First cells were centrifuged (1500 rpm, 5 min, 4° C.). The pellets were resuspended in saline solution with MTT (250 μg/mL) and then incubated at 37° C. during 30 min. After washing off excess MTT twice with saline solution, cells were disaggregated with H2O and sonicated for 1 min and the absorbance of the colored formazan salt was measured at 595 nm in a spectrophotometer plate reader. All experiments were performed three times.
Background: Formazan colour is commonly taken as a measure of viable cells.

The test system of another data set is human T lymphocytes. The experiment in a line: Viability of human T lymphocytes (MTT assay, 48 h). Type of data set: cell-based. The following applies: in words.
Text: as §1, §3

Another data set deals with EGF-R (Homo sapiens, UniProt P00533). The following applies: 100 μM; cited from earlier work.
Data set [5] deals with mitochondrial membrane permeability transition pore (mPTP) in SH-SY5Y cells. The experiment in a line: Mitochondrial membrane permeability transition pore (mPTP) measurement, TBHP-induced opening. It is filed as cell-based, human. To be noted: 1 mM TBHP. The method, then: The blockage of mPTP by compounds was determined with the MitoProbe Transition Assay Kit following manufacturer's instructions. Briefly, SH-SY5Y human neuroblastoma cells were re-suspended in pre-warmed PBS/Ca^+2 buffer at a final concentration of 1×10^6 cells/mL. Cells were loaded with 0.01 μM Calcein-AM and incubated at 37° C. for 15 min. Then, 0.4 mM CoCl2 and compounds at selected concentrations were added and incubated for 15 min at 37° C. […] After this incubation, cells were centrifuged and re-suspended in 100 μL of PBS. Just before analyzing, 1 mM tert-butyl hydroperoxide (TBHP) was added to the samples to induce pore opening. Fluorescence intensity was measured at 488 nm excitation and 517 nm emission wavelengths by flow cytometry using the ImageStreamMKII (Amnis Corporation, Merck-Millipore) and […] software. The fluorescence of 10,000 events was analyzed with IDEASR Application vs 6.0 (Amnis Corporation, Merck-Millipore). Experiments were carried out four times.

The test system of data set [6] is SH-SY5Y cells. The experiment in a line: Glutathione assay (Thiol Tracker Violet) after H2O2. Type of data set: cell-based, human. The following applies: 150 μM H2O2 co-treatment 6 h, two or more concentrations. On the procedure: Glutathione (GSH) levels were determined using Thiol Tracker Violet dye, which reacts with reduced thiols in cells. Reduced glutathione represents the majority of intracellular free thiols, so this probe can be used to estimate its levels in cells. Measurements were performed following manufacturer's protocol. Cells were seeded in 96-well plates at 2.5×10^5 cells/mL for 24 h and treated with compounds at various concentrations (1 μM→1 nM) and 150 μM H2O2. After 6 h, SH-SY5Y cells were washed twice with PBS and loaded with 100 μL of prewarmed Thiol Tracker Violet dye (10 μM) for 30 min at 37° C. The fluorescence was measured at 404 nm excitation and emission at 526 nm. All experiments were performed four times.

Data set [7] has as its system SH-SY5Y cells. The experiment in a line: Neuroprotection against H2O2 toxicity, cell viability by MTT. It is filed as cell-based, human. The following applies: 150 μM H2O2 co-treatment 6 h; 0.01, 0.1 and 1 μM. On the procedure: as §2, with “5%. Absorbance of formazan crystals was measured at 595 nm with a spectrophotometer plate reader. Saponin was used as death control and its absorbance was subtracted from the other data. All experiments were performed four times.” for “5%.”

The next data set deals with T2, CypA (Homo sapiens, UniProt P62937).
T2 construct: Active human CypA full-length protein was from Abcam; purchased Abcam
The experiment in a line: CypA PPIase activity inhibition. To be noted: up to 10 μM, in words. Type of data set: biochemical.

The subject of a further data set is SHSY5Y cells. The experiment in a line: Neuroprotective effects summarised over all five assays (viability, TMRM, ROS, GSH, mPTP). Type of data set: cell-based, human. To be noted: 0.001, 0.01 or 0.1 μM; H2O2 challenge. On the procedure:
As described previously, neuroprotective agents can mediate their effects through inhibition of CypD, an isoform of CypA. […] All assays were performed at the indicated concentrations (0.001, 0.01, or 0.1 μM) based on initial cytotoxicity determined with SHSY5Y cells (Table 1).

The target of a further data set is CypD (Homo sapiens, UniProt P30405). The experiment in a line: CypD enzyme inhibition assay (PPIase activity). It is filed as biochemical. To be noted: CypD 1 nM. On the procedure:
The inhibition of the peptidyl-prolyl cis-trans isomerase (PPIase) activity of compounds was determined by following the rate of hydrolysis of N-succinyl-Ala-Ala-Pro-Phe-pnitroanilide by chymotrypsin. CsA was used as positive control. The assay was performed as previously described (Yan, W., Qing, J., Mei, H., Nong, J., Huang, J., Zhu, J., Jiang, H., Liu, L., Zhang, L. and Li, J. Bioorg. Med. Chem. Lett., 2015, 25, 5682-5686) with small modifications. The assay buffer (20 mM Tris-HCl, 50 mM NaCl, pH 7.8), CypD (1 nM) and the compounds at concentrations ranging from 0.001 to 10 μM were pre-cooled at 4° C. for 1 h. After that time, chymotrypsin at 0.4 mg/mL in 1 mM HCl was added to each well. The reaction was initiated by the addition of the peptide (0.1 mg/mL in 500 mM LiCl in THF). The absorbance at 380 nm was monitored every 30 sec for 5 min with a spectrophotometer plate reader. The blank rates of hydrolysis (in absence of CypD) were subtracted from the rates in the presence of the enzyme. The half-maximal inhibitory concentration (IC50) was calculated by fitting the data with a log(inhibitor) vs. response model of GraphPad Prism 5.0 software. All experiments were performed four times.

The subject of data set [8] is SH-SY5Y cells. The experiment in a line: Intracellular ROS levels (carboxy-H2DCFDA) after H2O2. The following applies: 150 μM H2O2 co-treatment 6 h. It is filed as cell-based, human. On the procedure:
Intracellular levels of reactive oxygen species (ROS) were determined with carboxy-H2DCFDA (5-(and-6)-carboxy-2′,7′-dichlorodihydrofluorescein diacetate). This dye diffuses through the cellular membrane and is converted by cellular esterases to carboxy-H2DCFH (non-fluorescent). When carboxy-H2DCFH is oxidized by ROS, it becomes fluorescent (Halliwell, B. and Whiteman, M. Br. J. Pharmacol., 2004, 142, 231-255). Cells were seeded at a density of 2.5×10^5 cells/mL in 96-well plates and allowed to attach for 24 h. Following treatment with compounds at various concentrations (1 μM→1 nM) and 150 μM H2O2 for 6 h, SH-SY5Y cells were washed twice with serum-free culture medium. Then, carboxy-H2DCFDA 20 μM dissolved in serum-free culture medium was added to each well and the cells were incubated for 1 h at 37° C. After this incubation, the medium with the fluorescent dye was replaced with PBS and the plate was incubated for 30 min at 37° C. Fluorescence was read at 527 nm, with an excitation wavelength of 495 nm. All experiments were performed four times.

Results on three molecules are retold here after US11066379B2 (THE TEXAS A&M UNIVERSITY SYSTEM, priority 2018, dated 2021).

SMILES strings stand for the structures. “And” between values parts separate entries of the source, which are not always exact repeats. Equal values may be shown once. “Also recorded” adds a separate entry of the source.

T1 sequence (P62937 whole entry): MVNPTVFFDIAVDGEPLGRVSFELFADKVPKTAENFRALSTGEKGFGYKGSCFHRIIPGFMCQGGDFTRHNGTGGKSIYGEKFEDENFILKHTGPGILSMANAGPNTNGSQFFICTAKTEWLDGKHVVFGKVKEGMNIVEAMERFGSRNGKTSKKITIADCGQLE
CypD, sequence (P30405 30-207): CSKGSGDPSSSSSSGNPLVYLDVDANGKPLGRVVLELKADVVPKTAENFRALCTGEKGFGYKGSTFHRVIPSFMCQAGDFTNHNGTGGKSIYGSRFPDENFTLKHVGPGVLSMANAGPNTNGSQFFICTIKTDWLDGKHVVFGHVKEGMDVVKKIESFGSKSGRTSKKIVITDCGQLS
T2 sequence (P62937 whole entry): as the sequence (P62937 whole entry) above
EGF-R, sequence (P00533 25-1210, species assumed): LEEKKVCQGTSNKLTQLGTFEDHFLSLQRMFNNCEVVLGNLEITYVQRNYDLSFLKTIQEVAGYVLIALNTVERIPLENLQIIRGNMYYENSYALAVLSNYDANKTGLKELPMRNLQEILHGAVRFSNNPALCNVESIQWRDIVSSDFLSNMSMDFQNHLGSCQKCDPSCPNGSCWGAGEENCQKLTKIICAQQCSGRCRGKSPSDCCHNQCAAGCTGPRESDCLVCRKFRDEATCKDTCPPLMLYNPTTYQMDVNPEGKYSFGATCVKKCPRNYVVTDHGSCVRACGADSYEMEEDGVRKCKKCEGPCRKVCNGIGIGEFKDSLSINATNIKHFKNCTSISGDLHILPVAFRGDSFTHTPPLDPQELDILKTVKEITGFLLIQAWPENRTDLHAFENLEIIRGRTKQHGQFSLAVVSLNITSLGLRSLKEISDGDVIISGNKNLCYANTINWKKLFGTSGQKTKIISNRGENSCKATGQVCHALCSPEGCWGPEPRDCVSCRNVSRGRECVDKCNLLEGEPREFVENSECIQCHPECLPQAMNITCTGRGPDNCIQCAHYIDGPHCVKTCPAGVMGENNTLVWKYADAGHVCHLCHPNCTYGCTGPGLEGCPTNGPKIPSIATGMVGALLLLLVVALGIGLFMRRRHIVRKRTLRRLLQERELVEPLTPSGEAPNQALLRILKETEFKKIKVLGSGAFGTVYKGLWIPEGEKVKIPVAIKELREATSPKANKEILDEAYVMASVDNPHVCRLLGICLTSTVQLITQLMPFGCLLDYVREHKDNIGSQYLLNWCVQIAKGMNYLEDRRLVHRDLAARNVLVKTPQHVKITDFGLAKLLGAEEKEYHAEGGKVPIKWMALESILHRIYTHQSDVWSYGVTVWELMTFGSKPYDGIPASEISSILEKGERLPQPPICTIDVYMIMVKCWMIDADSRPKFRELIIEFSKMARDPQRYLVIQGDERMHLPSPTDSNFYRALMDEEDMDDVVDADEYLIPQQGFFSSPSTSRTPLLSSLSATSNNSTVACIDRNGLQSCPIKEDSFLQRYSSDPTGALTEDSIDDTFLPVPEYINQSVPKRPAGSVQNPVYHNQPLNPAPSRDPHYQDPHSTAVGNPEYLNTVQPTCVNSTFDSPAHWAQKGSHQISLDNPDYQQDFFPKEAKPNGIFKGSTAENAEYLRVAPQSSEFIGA

For the molecule `CC(=O)O[C@H]1OC[C@@H]2C=C([C@]3(C)CCCC(C)(C)C3)CC[C@H]12` [Compound 29b, (1R,3aR,7aS)-5-(1,3,3-trimethylcyclohexyl)-1,3,3a,6,7,7a-hexahydroisobenzofuran-1-yl acetate], the “Inhibition of IL-2 production” value in [1] is listed as approximately 0%. Besides, in data set [2], the Kd is ~3000 nM and 2800 to 6800 nM. Moreover, in the data set with SH-SY5Y cells [3], the “cytotoxicity toward SH-SY5Y cells” value is “led to cell death at the higher concentrations tested”. Moreover, in the data set on SH-SY5Y cells [3] (Homo sapiens, SH-SY5Y, read-out: IC50 (cellular toxicity)), the IC50 stood at 7.9 µM. The cytotoxicity at 48 h, 1 μM in data set [4] lay in the range of 15 to 25%. For the same molecule, in the data set with human T lymphocytes, the “impact on T-cell viability” value is “relatively non-toxic”.

`C/C=C1\C([C@@]2(C)CCCC(C)(C)C2)=CC[C@H]2[C@H](OC(C)=O)O[C@H](OC(C)=O)[C@@H]12` [gracilin A, reference compound]: at EGF-R, the EGF-R inhibition was 70%. This molecule also registered a Kd in [2] of 2530 ± 400 nM.

On to `CC(=O)OC[C@@H]1CCC(C2(C)CCCCC2)=C[C@@H]1COC(C)=O` [Compound 27b, ((3S,4R)-1′-methyl-[1,1′-bi(cyclohexan)]-1-ene-3,4-diyl)bis(methylene) diacetate], for which, in data set [5], the mPTP opening entry is reported as “prevent TBHP-induced opening”. Also, in the data set with SH-SY5Y cells [6], the GSH levels entry was “recovered GSH levels”. In the data set on SH-SY5Y cells [7], the “protection of cell viability against H2O2 insult” value was “protected cells against H2O2 insult at almost all concentrations”. Besides, at CypA, the “CypA PPIase inhibitory activity” value is “inactive”. In addition, the “cytotoxicity toward SH-SY5Y cells” value with SH-SY5Y cells [3] is on record as “led to cell death at the higher concentrations tested”. The “neuroprotective / antioxidant effects based on all five assays” value in the data set on SHSY5Y cells is on record as “displayed significant neuroprotective effects; also recorded: significant antioxidant activity in all five assays”. On CypD, the concentration for half-maximal inhibition (IC50) was 480 nM and < 500 nM. Also, in the data set with SH-SY5Y cells [8], the ROS levels entry is “diminishing ROS at two or three concentrations”.

As a reminder, the Kd is a measure of binding affinity in units of concentration. Read a low Kd as tighter binding. In general, IC50 refers to the midpoint of a concentration-inhibition curve.
